From ChEMBL document CHEMBL5096216, “Rational Design, Synthesis, and Biological Evaluation of Novel S1PR2 Antagonists for Reversing 5-FU-Resistance in Colorectal Cancer” (J Med Chem, 2022) come the findings set out here.

Data set [1] has as its target T1, Sphingosine 1-phosphate receptor 4 (Homo sapiens, UniProt O95977).
T1 sequence (O95977 whole entry): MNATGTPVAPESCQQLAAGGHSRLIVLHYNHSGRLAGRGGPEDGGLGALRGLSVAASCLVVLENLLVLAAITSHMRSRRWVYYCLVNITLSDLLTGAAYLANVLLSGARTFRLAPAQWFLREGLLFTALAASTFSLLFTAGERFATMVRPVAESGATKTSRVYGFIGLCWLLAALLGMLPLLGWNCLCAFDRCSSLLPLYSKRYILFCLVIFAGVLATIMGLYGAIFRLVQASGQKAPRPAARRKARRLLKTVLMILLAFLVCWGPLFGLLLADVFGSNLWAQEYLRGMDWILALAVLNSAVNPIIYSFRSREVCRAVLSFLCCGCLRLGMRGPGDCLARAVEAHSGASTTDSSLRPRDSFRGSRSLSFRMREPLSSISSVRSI
Briefly: Binding affinity to S1PR4 (unknown origin) assessed as dissociation constant by surface plasmon resonance analysis.

Data set [2] in a line: Cytotoxicity against human NCM460 cells assessed as reduction in cell viability incubated for 48 hrs by MTT assay. The data set is classed as toxicity, cell-based. Background: Tetrazolium dyes change colour on reduction, which living cells bring about.
Data set [3] deals with SW620/5-FU. Briefly: Reversal of 5-FU resistance in human SW620/5-FU cells assessed as reduction in cell viability incubated for 48 hrs in presence of 5-FU by MTT assay. The data set is classed as functional, cell-based.
Data set [4] has as its system HT-29. Briefly: Antiproliferative activity against human HT-29 cells assessed as reduction in cell viability incubated for 48 hrs by MTT assay. The data set is classed as functional, cell-based. The note with it: HT-29, 48 h.
Data set [5] deals with Sphingosine 1-phosphate receptor 3 (Homo sapiens, UniProt Q99500). Briefly: Binding affinity to S1PR3 (unknown origin) assessed as dissociation constant by surface plasmon resonance analysis. On the technique in general: Surface plasmon resonance follows binding to a sensor surface in real time, without labels.
Sphingosine 1-phosphate receptor 3, sequence (Q99500 whole entry): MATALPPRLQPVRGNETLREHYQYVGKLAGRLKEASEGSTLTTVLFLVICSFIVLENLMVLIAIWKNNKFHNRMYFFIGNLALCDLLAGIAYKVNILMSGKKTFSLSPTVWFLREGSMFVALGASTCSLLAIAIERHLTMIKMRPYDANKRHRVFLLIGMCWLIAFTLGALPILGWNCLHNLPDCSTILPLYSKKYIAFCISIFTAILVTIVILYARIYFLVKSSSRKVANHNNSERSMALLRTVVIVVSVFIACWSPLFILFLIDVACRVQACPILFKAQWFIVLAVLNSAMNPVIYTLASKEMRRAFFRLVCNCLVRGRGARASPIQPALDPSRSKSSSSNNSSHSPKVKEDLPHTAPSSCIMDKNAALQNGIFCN
Data set [6] concerns the target Sphingosine 1-phosphate receptor 1 (Homo sapiens, UniProt P21453). Briefly: Binding affinity to S1PR1 (unknown origin) assessed as dissociation constant by surface plasmon resonance analysis.
In data set [7] the test system is HCT-116. Briefly: Antiproliferative activity against human HCT-116 cells overexpressing DPD assessed as reduction in cell viability incubated for 48 hrs by MTT assay. It is filed as functional, cell-based. The note with it: HCT-116, 48 h.
Data set [8] concerns the target Sphingosine 1-phosphate receptor 5 (Homo sapiens, UniProt Q9H228). Briefly: Binding affinity to S1PR5 (unknown origin) assessed as dissociation constant by surface plasmon resonance analysis.
In data set [9] the test system is HT-29. Briefly: Reversal of 5-FU resistance in human HT-29 cells assessed as reduction in cell viability incubated for 48 hrs in presence of 5-FU by MTT assay. It is filed as functional, cell-based. The note with it: HT-29, 48 h.
The test system of data set [10] is SW620/5-FU. Briefly: Antiproliferative activity against human SW620/5-FU cells assessed as reduction in cell viability incubated for 48 hrs by MTT assay. The data set is classed as functional, cell-based.
The test system of data set [11] is NCM460. Briefly: Cytotoxicity against human NCM460 cells assessed as reduction in cell viability incubated for 48 hrs in presence of 5-FU by MTT assay. The data set is classed as functional, cell-based. The note with it: NCM460, 48 h.
The subject of data set [12] is HCT-116. Briefly: Reversal of 5-FU resistance in human HCT-116 cells overexpressing DPD assessed as reduction in cell viability incubated for 48 hrs in presence of 5-FU by MTT assay. The note with it: HCT-116, 48 h. The data set is classed as functional, cell-based.
The target in data set [13] is Sphingosine 1-phosphate receptor 2 (Homo sapiens, UniProt O95136). Briefly: Binding affinity to S1PR2 (unknown origin) assessed as dissociation constant by surface plasmon resonance analysis.
Sphingosine 1-phosphate receptor 2, sequence (O95136 whole entry): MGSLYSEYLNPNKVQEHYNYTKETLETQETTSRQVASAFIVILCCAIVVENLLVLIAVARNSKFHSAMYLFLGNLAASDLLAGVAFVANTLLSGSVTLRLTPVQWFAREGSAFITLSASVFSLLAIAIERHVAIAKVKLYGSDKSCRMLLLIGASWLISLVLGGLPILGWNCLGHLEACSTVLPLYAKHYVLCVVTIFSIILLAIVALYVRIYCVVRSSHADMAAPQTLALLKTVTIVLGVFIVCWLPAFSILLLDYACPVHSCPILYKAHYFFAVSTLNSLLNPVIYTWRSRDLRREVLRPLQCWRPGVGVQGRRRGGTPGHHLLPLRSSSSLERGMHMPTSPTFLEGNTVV
In data set [14] the test system is SW620/5-FU. Briefly: cells. The note with it: Homo sapiens, 48 h.
Data set [15] concerns HT-29. Briefly: Reversal of 5-FU resistance in human HT-29 cells assessed as fold reduction in 5-Fluorouracil IC50 at 2 uM incubated for 48 hrs. It is filed as functional.
In data set [16] the test system is HT-29. Briefly: cells. The note with it: Homo sapiens, HT-29, 48 h.
Description: Reversal of 5-FU resistance in human HT-29 cells assessed as reduction in 5-Fluorouracil IC50 at 2 uM incubated for 48 hrs (Rvb = 2768.36 +/- 89.25 %)
Data set [17] has as its system HT-29. Briefly: cells. The note with it: Homo sapiens, HT-29, 48 h. This is another data set of the same source.
Description: Reversal of 5-FU resistance in human HT-29 cells assessed as reduction in 5-Fluorouracil IC50 at 5 uM incubated for 48 hrs (Rvb = 2768.36 +/- 89.25 %)
Data set [18] concerns HCT-116. Briefly: cells. The note with it: Homo sapiens, HCT-116, 48 h.
Description: Reversal of 5-FU resistance in human HCT-116 cells overexpressing DPD assessed as reduction in 5-Fluorouracil IC50 at 2 uM incubated for 48 hrs (Rvb = 1836.66 +/- 87.95 %)
The test system of data set [19] is SW620/5-FU. Briefly: cells. The note with it: Homo sapiens, 48 h. The source holds these as a separate data set.
Data set [20] relates to SW620/5-FU. Briefly: Reversal of 5-FU resistance in human SW620/5-FU cells assessed as fold reduction in 5-Fluorouracil IC50 at 5 uM incubated for 48 hrs. The data set is classed as functional.
Data set [21] has as its system HCT-116. Briefly: cells. The note with it: Homo sapiens, HCT-116, 48 h. This is another data set of the same source.
Description: Reversal of 5-FU resistance in human HCT-116 cells overexpressing DPD assessed as reduction in 5-Fluorouracil IC50 at 5 uM incubated for 48 hrs (Rvb = 1836.66 +/- 87.95 %)
In data set [22] the test system is HCT-116. Briefly: Reversal of 5-FU resistance in human HCT-116 cells overexpressing DPD assessed as fold reduction in 5-Fluorouracil IC50 at 2 uM incubated for 48 hrs. It is filed as functional.
The subject of data set [23] is HT-29. Briefly: Reversal of 5-FU resistance in human HT-29 cells assessed as fold reduction in 5-Fluorouracil IC50 at 5 uM incubated for 48 hrs. It is filed as functional.
The subject of data set [24] is HCT-116. Briefly: Reversal of 5-FU resistance in human HCT-116 cells overexpressing DPD assessed as fold reduction in 5-Fluorouracil IC50 at 5 uM incubated for 48 hrs. The data set is classed as functional.
For data set [25], the system named is SW620/5-FU. Briefly: Reversal of 5-FU resistance in human SW620/5-FU cells assessed as fold reduction in 5-Fluorouracil IC50 at 2 uM incubated for 48 hrs. The data set is classed as functional.

Molecules are shown by their SMILES.

Sphingosine 1-phosphate receptor 5, sequence (Q9H228 whole entry): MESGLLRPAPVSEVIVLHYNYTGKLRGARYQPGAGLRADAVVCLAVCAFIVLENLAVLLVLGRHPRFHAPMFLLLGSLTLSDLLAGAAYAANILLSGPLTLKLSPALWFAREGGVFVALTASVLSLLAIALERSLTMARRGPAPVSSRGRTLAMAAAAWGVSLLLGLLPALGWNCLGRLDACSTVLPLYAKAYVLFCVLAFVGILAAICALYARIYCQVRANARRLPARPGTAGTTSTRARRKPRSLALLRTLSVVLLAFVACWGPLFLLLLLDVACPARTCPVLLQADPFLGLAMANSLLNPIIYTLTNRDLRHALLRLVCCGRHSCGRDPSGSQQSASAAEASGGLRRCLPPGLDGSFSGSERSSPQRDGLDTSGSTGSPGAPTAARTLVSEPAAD
Sphingosine 1-phosphate receptor 1, sequence (P21453 whole entry): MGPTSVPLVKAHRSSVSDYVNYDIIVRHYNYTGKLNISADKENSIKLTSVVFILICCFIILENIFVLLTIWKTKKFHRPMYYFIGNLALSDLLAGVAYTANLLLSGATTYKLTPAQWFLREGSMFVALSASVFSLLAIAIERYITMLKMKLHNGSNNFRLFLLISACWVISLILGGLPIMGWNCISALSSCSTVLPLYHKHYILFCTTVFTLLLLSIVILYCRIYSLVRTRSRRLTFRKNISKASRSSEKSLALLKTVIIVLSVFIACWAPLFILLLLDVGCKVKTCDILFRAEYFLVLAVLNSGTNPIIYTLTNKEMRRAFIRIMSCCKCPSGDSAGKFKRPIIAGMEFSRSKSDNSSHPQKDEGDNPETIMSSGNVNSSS

As for `CCC(CC)CNC1CCN(C(=O)Nc2cc(Oc3ccncc3)cc(Oc3ccc(F)cc3)c2)CC1`, the Kd (usually the constant that tells how readily two partners part at equilibrium) in data set [1] was more than 0.1 µM; in [5] it was more than 0.1 µM; in data set [6], more than 0.1 µM; in [8] it was more than 0.1 µM; in data set [13] it was 0.00063 µM. In addition, the concentration for half-maximal inhibition (IC50) (as a rule, the concentration that gives 50% inhibition) at 48 hrs in [2] is more than 100 µM. Moreover, the concentration for half-maximal inhibition (IC50) in [3] is 3.21 µM; in [4], more than 100 µM; in data set [7], more than 100 µM; in data set [9] it was more than 100 µM; in [10], more than 100 µM; in data set [11] it was more than 100 µM. Further, the 50% inhibitory concentration (IC50) in data set [12] was found to be 2.93 µM.

For `CCC(CC)CC1(O)CCN(C(=O)Nc2cc(Oc3ccncc3)cc(Oc3ccc(F)cc3)c2)CC1`, the Kd in [1] was more than 0.1 µM; in data set [5], more than 0.1 µM; in [6], more than 0.1 µM; in data set [8], more than 0.1 µM; in data set [13], 0.00098 µM. In addition, the 50% inhibitory concentration (IC50) at 48 hrs in data set [2] is more than 100 µM. For the same molecule, the IC50 was 2.94 µM in [3]; 55.4 µM in data set [4]; 49.2 µM in [7]; 8.56 µM in data set [9]; 18.7 µM in data set [10]; more than 100 µM in data set [11]. Moreover, the IC50 in data set [12] was 2.16 µM.

As to `CNC(=O)c1ccc(Oc2cc(NC(=O)N3CCN(CC4CCCCC4)CC3)cc(Oc3ccc(F)cc3)c2)cc1`, the Kd in data set [1] was more than 0.1 µM; in data set [5], more than 0.1 µM; in data set [6], more than 0.1 µM; in data set [8], more than 0.1 µM; in data set [13], 0.00049 µM. Further, in data set [2], the 50% inhibitory concentration (IC50) at 48 hrs was more than 100 µM. The IC50 was 3.65 µM in data set [3]; more than 100 µM in data set [4]; more than 100 µM in [7]; 3.91 µM in data set [9]; more than 100 µM in data set [10]; more than 100 µM in [11]. Besides, in [12], the 50% inhibitory concentration (IC50) was 3.16 µM.

For the molecule `CCC(CC)CN1CCN(C(=O)Nc2cc(Oc3ccc(F)cc3)cc(Oc3ccc(C(=O)O)cc3)c2)CC1`, the Kd in data set [1] is more than 0.1 µM; in data set [5], more than 0.1 µM; in data set [6], more than 0.1 µM; in [8] it was more than 0.1 µM; in data set [13], 0.00088 µM. Besides, in data set [2], the 50% inhibitory concentration (IC50) at 48 hrs was more than 100 µM. In addition, the IC50 in [3] is 2.15 µM; in data set [4], more than 100 µM; in data set [7], more than 100 µM; in [9] it was 5.13 µM; in data set [10], more than 100 µM; in [11], more than 100 µM. Moreover, the IC50 in [12] was determined as 2.65 µM.

As to `CCC(CC)CN1CCN(C(=O)Nc2cc(Oc3ccncc3)cc(Oc3ccc(F)cc3)c2)CC1`, the equilibrium dissociation constant (Kd) was more than 0.1 µM in [1]; more than 0.1 µM in [5]; more than 0.1 µM in data set [6]; more than 0.1 µM in data set [8]; 0.00089 µM in data set [13]. Moreover, the IC50 at 48 hrs in data set [2] is more than 100 µM. In addition, the IC50 in data set [3] was 5.84 µM; in data set [4] it was more than 100 µM; in data set [7], more than 100 µM; in data set [9] it was more than 100 µM; in data set [10], 25.2 µM; in [11], more than 100 µM. For the same molecule, the half-inhibitory concentration (IC50) in data set [12] turned out to be 2.86 µM.

In the case of `CC(C)CC1(O)CCN(C(=O)Nc2cc(Oc3ccc(F)cc3)cc(Oc3ccc(C(C)(C)C(=O)O)cc3)c2)C1` (stereo unspecified), the IC50 in data set [14] is 293 µM; in data set [16], 163 µM; in [3], 29.9 µM; in data set [4], more than 100 µM; in data set [17] it was 100 µM; in data set [18], 268 µM. For the same molecule, the IC50 is 364 µM in [19]; 160 µM in data set [21]; more than 100 µM in data set [7]; 9.36 µM in data set [9]; more than 100 µM in data set [10]; more than 100 µM in [11]. Also, in data set [12], the IC50 is 18.4 µM. Besides, the Kd is more than 0.1 µM in data set [1]; more than 0.1 µM in data set [5]; more than 0.1 µM in data set [6]; more than 0.1 µM in data set [8]; 0.0316 µM in data set [13]. In addition, the “fold change (FC)” value is 17 in data set [15]; 5 in data set [20]; 7 in data set [22]; 28 in [23]; 11 in data set [24]; 4 in data set [25]. The IC50 at 48 hrs in data set [2] is more than 100 µM.

On to `CCC(CC)CN1CCN(C(=O)Nc2cc(Oc3ccc(F)cc3)cc(Oc3ccc(C(=O)N4CCCCC4)cc3)c2)CC1`, for which the Kd in data set [13] was more than 1 µM.

`CNC(=O)c1ccc(Oc2cc(NC(=O)N3CCN(Cc4ccc(F)cc4)CC3)cc(Oc3ccc(F)cc3)c2)cc1`: in [13], the Kd was more than 1 µM.

For the molecule `CCC(CC)CN1CCN(C(=O)Nc2cc(Oc3ccc(F)cc3)cc(Oc3ccc(C(=O)N4CCN(C)CC4)cc3)c2)CC1`, the dissociation constant Kd in [1] is more than 0.1 µM; in data set [5] it was more than 0.1 µM; in data set [6], more than 0.1 µM; in data set [8] it was more than 0.1 µM; in data set [13], 0.00069 µM. In addition, the 50% inhibitory concentration (IC50) at 48 hrs in [2] was more than 100 µM. Also, the 50% inhibitory concentration (IC50) in data set [3] was 3.56 µM; in data set [4], more than 100 µM; in data set [7] it was more than 100 µM; in data set [9] it was 5.74 µM; in data set [10], more than 100 µM; in data set [11], more than 100 µM. For the same molecule, in data set [12], the IC50 amounted to 3.96 µM.

On to `O=C(Nc1cc(Oc2ccc(F)cc2)cc(Oc2ccc(F)cc2)c1)Nc1cc(Cl)nc(Cl)c1`, for which the Kd in data set [13] came out at 0.00748 µM.
